Values quoted from earlier work in patent US8138336B2, “Pyrrolotriazine derivatives useful for treating cancer through inhibition of aurora kinase” (Bayer HealthCare LLC, priority 2007, dated 2012).
Where two headings read alike, the source gives them in different places.

System: breast tumors

CC(=O)O[C@@]12CO[C@@H]1C[C@H](O)[C@@]1(C)C(=O)[C@H](O)C3=C(C)[C@@H](OC(=O)[C@H](O)[C@@H](NC(=O)OC(C)(C)C)c4ccccc4)C[C@@](O)([C@@H](OC(=O)c4ccccc4)[C@H]21)C3(C)C [Docetaxel]
response rate to Docetaxel treatment (patients with breast tumors with high Aurora-A mRNA levels): 41%
response rate to Docetaxel treatment (patients with low Aurora-A mRNA breast tumors): 71%
